From US20080014253A1, “Lipid-Based Drug Delivery Systems Containing Unnatural Phospholipase A2 Degradable Lipid Derivatives and the Therapeutic Uses Thereof” (priority 2004, published 2008)

Molecular target: T1, PLA2 (A. piscivorus piscivorus) (Agkistrodon piscivorus piscivorus, UniProt P51972)
T1 sequence (P51972 1-123): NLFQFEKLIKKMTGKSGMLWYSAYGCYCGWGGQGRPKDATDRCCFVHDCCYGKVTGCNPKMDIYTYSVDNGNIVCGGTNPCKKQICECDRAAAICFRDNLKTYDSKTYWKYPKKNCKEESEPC
Assay: PLA2 hydrolysis of unilamellar liposomes (lag time, degree of lipid hydrolysis by HPLC)
Format: biochemical
Conditions: for degree of PLA2 lipid hydrolysis: 1000 s after the unset of the burst, HPLC, broad temperature range
Method: FIG. 4. Characteristic reaction time profiles at 40° C. for PLA2 hydrolysis of unilamellar. (A) 0.15 mM 1-O-DPPC′ liposomes incubated with 150 nM PLA2 (A. piscivorus piscivorus). (B) 0.15 mM 1-O-DPPG′ liposomes incubated with human secretory PLA2 from 20 μL freshly prepared human tear fluid (B). The PLA2 hydrolysis reaction is monitored by intrinsic fluorescence (solid line) from the enzyme and 90° static light scattering (dashed lines) from the lipid suspension. After adding PLA2 to the equilibrated liposome suspension a characteristic lag time, τ, follows before a sudden increase in the catalytic activity takes place (A).
FIG. 5. PLA2 (A. piscivorus piscivorus) lag time, τ, as a function of temperature for the hydrolysis of 1-O-DPPC′ unilamellar liposomes incorporated with 0 mol % (▪), 2 mol % (▴), and 10 mol % (∘) 1-O-DPPG′ lipids, and 5 mol % (V) DSPE-PEG2000 polymer lipids. The concentration of the liposomes was 0.15 mM and the concentration of PLA2 was 150 nM.
FIG. 6. (A) PLA2 (A. piscivorus piscivorus) hydrolysis of 1-O-DPPC′ liposomes containing 0 mol % (▪), 2 mol % (▴), and 10 mol % (∘) 1-O-DPPG′ lipids, and 5 mol % (▾) DSPE-PEG2000 polymer lipids determined by HPLC [28]. The percent lipid hydrolysis is determined 1000 s after the unset of the burst. The concentration of the liposomes was 0.15 mM and the concentration of PLA2 was 150 nM. (B) Hydrolysis of 1-O-DPPG′ unilamellar liposomes determined by HPLC [28]. The PLA2 catalyzed lipid hydrolysis is determined as a function of time after addition of 20 μL freshly prepared human tear fluid to 0.15 mM 1-O-DPPG′ liposomes.
By replacing the ester linkage in the C-1 position with an ether bond, these unnatural phospholipids can furthermore be used as novel prodrug anticancer lipids to make liposomal microcarriers that can be degraded to active anticancer lysoetherlipids by PLA2 [27]. […] The PLA2 lag time measurements on 1-O-DPPC′ unilamellar liposomes incorporated with small amounts of 1-O-DPPG′ or DSPE-PEG2000 lipids were performed in the gel-to-fluid main phase transition range and the degree of lipid hydrolysis was analyzed using HPLC techniques.
Typical PLA2 (A. piscivorus piscivorus) hydrolysis time course profiles obtained at 40° C. are shown in FIG. 4 for 1-O-DPPC′ and 1-O-DPPG′ unilamellar liposomes. […] The rapid increase in PLA2 activity is reflected by a sharp rise in the intrinsic PLA2 tryptophan fluorescence intensity followed by a concomitant decrease in the 90° static light scattering caused by a change in the morphology of the lipid system when a large amount of the phospholipids are converted to non-bilayer forming lysolipids and free fatty acids. […] Both the fluorescence and light scattering data clearly indicate that the unnatural phospholipids are excellent substrates for PLA2 catalyzed hydrolysis. […]

Row | Compound | degree of PLA2 lipid hydrolysis | PLA2 lag time, τ (0.15 mM unilamellar liposomes, 150 nM PLA2, 40° C.) | PLA2 lag time (1-O-DPPC′ liposomes incorporated with 5 mol % DPPE-PEG2000 lipopolymers)
1 | (S)-1-O-hexadecyl-3-hexadecanoyl-glycero-2-phosphoglycerol [1-O-DPPG′] | remarkably high degree of lipid hydrolysis |  | 
2 | CCCCCCCCCCCCCCCCOC[C@@H](COC(=O)CCCCCCCCCCCCCCC)OP(=O)([O-])OCC[N+](C)(C)C [1-O-DPPC′, (S)-1-O-hexadecyl-3-hexadecanoyl-glycero-2-phosphocholine] | remarkably high degree of lipid hydrolysis | observed | very short lag time
